System: SEM cells
Assay: cell viability relative to DMSO control; higher = less cytotoxic
Conditions: 48 h
In short: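 Library compounds in DMSO were pin-dosed in an 11-point threefold series (47 μM to 0.79 nM) onto leukemia cells in 1536-well plates (5 μl). Plates held 500 cells/well of NOMO1 or SEM or 1000 cells/well of P12-Ichikawa, each adapted for at least four passages in each medium. Luminescence was read with CellTiter-Glo One after 48 h at 37°C. Viability means the per-plate percentage relative to DMSO wells, using cell-free wells as background.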

[1] = HPLM + 10% dialyzed FBS, 0.000781 µM
[2] = HPLM + 10% dialyzed FBS, 0.00234 µM
[3] = HPLM + 10% dialyzed FBS, 0.00702 µM
[4] = HPLM + 10% dialyzed FBS, 0.0211 µM
[5] = HPLM + 10% dialyzed FBS, 0.0632 µM
[6] = HPLM + 10% dialyzed FBS, 0.19 µM
[7] = HPLM + 10% dialyzed FBS, 0.569 µM
[8] = HPLM + 10% dialyzed FBS, 1.71 µM
[9] = HPLM + 10% dialyzed FBS, 5.12 µM
[10] = HPLM + 10% dialyzed FBS, 15.4 µM
[11] = HPLM + 10% dialyzed FBS, 46.1 µM
[12] = RPMI 5 mM glucose + 10% FBS, 0.000781 µM
[13] = RPMI 5 mM glucose + 10% FBS, 0.00234 µM
[14] = RPMI 5 mM glucose + 10% FBS, 0.00702 µM
[15] = RPMI 5 mM glucose + 10% FBS, 0.0211 µM
[16] = RPMI 5 mM glucose + 10% FBS, 0.0632 µM
[17] = RPMI 5 mM glucose + 10% FBS, 0.19 µM
[18] = RPMI 5 mM glucose + 10% FBS, 0.569 µM
[19] = RPMI 5 mM glucose + 10% FBS, 1.71 µM
[20] = RPMI 5 mM glucose + 10% FBS, 5.12 µM
[21] = RPMI 5 mM glucose + 10% FBS, 15.4 µM
[22] = RPMI 5 mM glucose + 10% FBS, 46.1 µM
[23] = RPMI 5 mM glucose + 10% dialyzed FBS, 0.000781 µM
[24] = RPMI 5 mM glucose + 10% dialyzed FBS, 0.00234 µM
[25] = RPMI 5 mM glucose + 10% dialyzed FBS, 0.00702 µM
[26] = RPMI 5 mM glucose + 10% dialyzed FBS, 0.0211 µM
[27] = RPMI 5 mM glucose + 10% dialyzed FBS, 0.0632 µM
[28] = RPMI 5 mM glucose + 10% dialyzed FBS, 0.19 µM
[29] = RPMI 5 mM glucose + 10% dialyzed FBS, 0.569 µM
[30] = RPMI 5 mM glucose + 10% dialyzed FBS, 1.71 µM
[31] = RPMI 5 mM glucose + 10% dialyzed FBS, 5.12 µM
[32] = RPMI 5 mM glucose + 10% dialyzed FBS, 15.4 µM
[33] = RPMI 5 mM glucose + 10% dialyzed FBS, 46.1 µM

Row | SMILES | cell viability [1] | cell viability [2] | cell viability [3] | cell viability [4] | cell viability [5] | cell viability [6] | cell viability [7] | cell viability [8] | cell viability [9] | cell viability [10] | cell viability [11] | cell viability [12] | cell viability [13] | cell viability [14] | cell viability [15] | cell viability [16] | cell viability [17] | cell viability [18] | cell viability [19] | cell viability [20] | cell viability [21] | cell viability [22] | cell viability [23] | cell viability [24] | cell viability [25] | cell viability [26] | cell viability [27] | cell viability [28] | cell viability [29] | cell viability [30] | cell viability [31] | cell viability [32] | cell viability [33]
1 | COC1=C(N2CCNC(C)C2)C(=CC3=C1N(\C=C(C(O)=O)/C3=O)C4CC4)F (stereo not drawn) | 74.8% | 88.8% | 83.1% | 84.2% | 51.8% | 66.3% | 55.2% | 51.2% | 13.9% | 21.6% | 18.1% | 98% | 95.1% | 116% | 96% | 53.2% | 92.3% | 58.5% | 61.7% | 44.8% | 37.9% | 25.6% | 73.7% | 73.3% | 79.9% | 83.1% | 48.8% | 60.2% | 48.7% | 38.5% | 13.4% | 26.6% | 12.2%
2 | CC(C)(C)c1cc(NC(=O)Nc2ccc(-c3cn4c(n3)sc3cc(OCCN5CCOCC5)ccc34)cc2)no1 | 66.8% | 53.7% | 45.8% | 44.3% | 32.2% | 38.2% | 46.6% | 30% | 30.1% | 26.1% | 27.8% | 80.9% | 61.9% | 67.7% | 49.8% | 42.1% | 46.3% | 49.3% | 38.9% | 43.4% | 33.5% | 27.8% | 74.2% | 49.4% | 51.3% | 36.6% | 30.4% | 36% | 31.3% | 33.6% | 27.5% | 23.5% | 24.6%
3 | CC/C(=C(/c1ccc(O)cc1)c1ccc(OCCNC)cc1)c1ccccc1 | 61.4% | 99.5% | 91.2% | 102% | 103% | 115% | 101% | 96.7% | 65.6% | 59.5% | 26.1% | 66.8% | 102% | 108% | 112% | 107% | 109% | 102% | 94.8% | 65.7% | 47.8% | 25.9% | 53.5% | 106% | 88.3% | 104% | 95.8% | 123% | 97.6% | 97.6% | 69.5% | 43.5% | 38%
4 | CN(C)CCOc1cc(-c2cn[nH]c2)ccc1NC(=O)C1COc2ccccc2O1 (stereo not drawn) | 87.1% | 84.6% | 101% | 105% | 106% | 106% | 98.5% | 102% | 80.1% | 71.7% | 56.2% | 101% | 95% | 108% | 94.9% | 118% | 90.7% | 103% | 96% | 105% | 69.3% | 61.3% | 107% | 101% | 110% | 108% | 94.6% | 104% | 93.1% | 102% | 98.3% | 71.8% | 68.9%
5 | CCN(CC)CC#CCOC(=O)C(O)(c1ccccc1)C1CCCCC1 (stereo not drawn) | 108% | 109% | 98.1% | 92.4% | 115% | 111% | 124% | 121% | 105% | 129% | 98.5% | 108% | 117% | 126% | 80% | 115% | 121% | 118% | 120% | 125% | 104% | 102% | 117% | 112% | 145% | 83.3% | 126% | 132% | 142% | 120% | 135% | 129% | 99.3%
6 | CCc1cc(Nc2nccc(-c3c(-c4ccc(OC)c(C(=O)Nc5c(F)cccc5F)c4)nc4ccccn34)n2)c(OC)cc1N1CCC(N2CCN([S+](C)(=O)[O-])CC2)CC1 | 88.9% | 84.9% | 102% | 93.2% | 87.7% | 84.8% | 95.3% | 89.1% | 96.2% | 82.6% | 52.4% | 88.4% | 94.6% | 102% | 100% | 107% | 121% | 105% | 91.6% | 91.9% | 66.6% | 23.5% | 83.1% | 78% | 80.7% | 101% | 87.8% | 79.9% | 86% | 80.6% | 89.1% | 65.9% | 38.7%
7 | Cc1nc(NC(=O)N2CCC[C@H]2C(N)=O)sc1-c1ccnc(C(C)(C)C(F)(F)F)c1 | 91.6% | 98.2% | 84.2% | 96.9% | 93% | 72.5% | 74.4% | 63.3% | 59.1% | 52.7% | 100% | 98.7% | 111% | 102% | 121% | 112% | 91.1% | 97.8% | 86.6% | 74.5% | 68.2% | 119% | 96.3% | 95.9% | 84% | 93% | 85.7% | 92.3% | 86.1% | 77.2% | 62.2% | 58% | 89.2%
8 | CC(C)C(C)/C=C/C(C)C1CCC2C3=CC=C4CC(O)CCC4(C)C3CCC21C (stereo not drawn) | 92.6% | 79.7% | 86.7% | 73.2% | 82% | 77.4% | 83.7% | 76.5% | 68.6% | 81.8% | 86.4% | 99.6% | 107% | 111% | 99.8% | 97.1% | 94% | 111% | 92.9% | 98.5% | 96.1% | 102% | 88% | 107% | 95.1% | 83.1% | 107% | 91.4% | 117% | 105% | 87.2% | 88.8% | 88.3%
9 | C=CC(=O)Nc1cccc(Oc2nc(Nc3ccc(N4CCN(C)CC4)cc3)ncc2Cl)c1 | 94.3% | 112% | 109% | 116% | 128% | 111% | 104% | 83% | 22.1% | 21.6% | 22.2% | – | – | – | – | – | – | – | – | – | – | – | 108% | 107% | 125% | 124% | 128% | 111% | 103% | 71.8% | 21.1% | 15% | 10.4%
10 | C[C@H]1[C@H](NC(=O)/C(=N/OC(C)(C)C(=O)O)c2csc(N)n2)C(=O)N1[S+](=O)([O-])O | 89.9% | 102% | 100% | 99.3% | 95.2% | 103% | 100% | 93.1% | 104% | 107% | 86.1% | 98.7% | 103% | 106% | 106% | 107% | 88.3% | 104% | 110% | 104% | 101% | 79.7% | 106% | 107% | 121% | 113% | 110% | 129% | 114% | 113% | 105% | 64.8% | 88.2%
11 | CC\1=C/C=C\C=[N]1[Pt](N)(Cl)Cl | 82% | 79.2% | 91.4% | 96.5% | 102% | 84.1% | 89.5% | 89% | 98.1% | 83.6% | 85.1% | 99.2% | 119% | 126% | 108% | 119% | 124% | 114% | 109% | 110% | 120% | 58% | 80.5% | 90.5% | 97.1% | 100% | 98.1% | 91.4% | 87.3% | 83% | 91.5% | 79.5% | 55.9%
12 | COC(=O)Nc1nc2cc(C(=O)c3cccs3)ccc2[nH]1 | 102% | 71.5% | 94.1% | 48.1% | 28.1% | 30.4% | 24.9% | 28% | 25.8% | 28.9% | 19.8% | 95.6% | 46.7% | 88% | 37% | 15.3% | 15.1% | 17.5% | 14.8% | 13.9% | 14.3% | 14.2% | 111% | 69% | 94.4% | 51.8% | 24.7% | 25.5% | 22.3% | 27.2% | 26% | 26.6% | 22.2%
13 | OC(=O)C1=CC=C(NC2=NC3=C(C\N=C(/C4=CC(=CC=C34)Cl)C5=C(F)C=CC=C5F)C=N2)C=C1 | 88.5% | 98.5% | 87.5% | 97.9% | 101% | 96% | 114% | 65.8% | 59.7% | 36.9% | 40.3% | 96% | 93% | 113% | 99.9% | 109% | 91% | 109% | 60.2% | 37.3% | 28.4% | 23.2% | 88.6% | 98.5% | 86% | 105% | 90.8% | 95.7% | 107% | 58.6% | 39% | 28.4% | 32.2%
14 | O=C(NCC[S+](=O)([O-])c1ccc(C(F)(F)F)cn1)c1ccc(Cl)cc1 | 115% | 126% | 107% | 117% | 111% | 114% | 103% | 106% | 101% | 104% | 107% | 94.5% | 111% | 89.7% | 96.7% | 86.8% | 104% | 99.2% | 81% | 80.6% | 109% | 87.1% | – | – | – | – | – | – | – | – | – | – | –
15 | Cc1ccccc1C(C(=O)NC1CCCCC1)N(C(=O)Cn1ccnc1C)c1cccc(F)c1 (stereo not drawn) | 109% | 31% | 118% | 111% | 109% | 130% | 127% | 124% | 114% | 100% | 92.7% | 112% | 108% | 96.9% | 103% | 98.4% | 114% | 112% | 121% | 110% | 84.1% | 88.9% | 84.5% | 27.9% | 100% | 105% | 102% | 88.5% | 110% | 95.2% | 97.4% | 93.6% | 90.6%
